Assay results: patent US12043630B2, “Polymorphic form of TG02 for treating cancer” (Cothera Bioscience, Inc., priority 2017, dated 2024)
Structures can show the parent of a compound that is named as a salt.

Assay: Polymorphic form conversion over time
Type: physicochemical
Protocol: Preparation: A solution containing TG02·HCl (77.1 g), EtOH (2340 mL) and H2O (185 mL) was heated at reflux for 0.5 h. The mixture was cooled to […] and stirred for 2 h. The mixture was filtered, and the filter cake was washed with EtOH and dried to give TG02 Form VIII (HCl).

In the case of `CN1C/C=C/CCOc2cccc(c2)-c2ccnc(n2)Nc2cccc(c2)C1` [TG02 Form VIII (HCl), (16E)-14-methyl-20-oxa-5,7,14,26-tetraazatetracyclo[19.3.1.1(2,6).1(8,12)]heptacosa-1(25),2(26),3,5,8(27),9,11,16,21,23-decaene], the “Form conversion over time” value is reported as “gradually converted to TG02 Form VI (HCl) over time”.
